Source: patent publication US12404260B2, “Pyridine rings containing derivatives as MALT1 inhibitors” (Janssen Pharmaceutica NV, priority 2019, dated 2025)

Tests used:
[1] = molecular target: T1, full-length MALT1 protein (Strep-MALT1(1-824)-His) (Homo sapiens, UniProt Q9UDY8); experiment: MALT1 Biochemical Protease Assay; conditions: 10 nM FL MALT1, 200 μM Ac-LRSR-AMC, 50 min pre-incubation, 4 h at RT; read-out: MALT1_Biochemical activity (Ac-LRSR-amc) IC50
T1 construct: full-length MALT1 protein (Strep-MALT1(1-824)-His) purified from baculovirus-infected insect cells; Strep (N); His (C); made in house; host or cells: baculovirus-infected insect cells
T1 sequence (Q9UDY8 1-824): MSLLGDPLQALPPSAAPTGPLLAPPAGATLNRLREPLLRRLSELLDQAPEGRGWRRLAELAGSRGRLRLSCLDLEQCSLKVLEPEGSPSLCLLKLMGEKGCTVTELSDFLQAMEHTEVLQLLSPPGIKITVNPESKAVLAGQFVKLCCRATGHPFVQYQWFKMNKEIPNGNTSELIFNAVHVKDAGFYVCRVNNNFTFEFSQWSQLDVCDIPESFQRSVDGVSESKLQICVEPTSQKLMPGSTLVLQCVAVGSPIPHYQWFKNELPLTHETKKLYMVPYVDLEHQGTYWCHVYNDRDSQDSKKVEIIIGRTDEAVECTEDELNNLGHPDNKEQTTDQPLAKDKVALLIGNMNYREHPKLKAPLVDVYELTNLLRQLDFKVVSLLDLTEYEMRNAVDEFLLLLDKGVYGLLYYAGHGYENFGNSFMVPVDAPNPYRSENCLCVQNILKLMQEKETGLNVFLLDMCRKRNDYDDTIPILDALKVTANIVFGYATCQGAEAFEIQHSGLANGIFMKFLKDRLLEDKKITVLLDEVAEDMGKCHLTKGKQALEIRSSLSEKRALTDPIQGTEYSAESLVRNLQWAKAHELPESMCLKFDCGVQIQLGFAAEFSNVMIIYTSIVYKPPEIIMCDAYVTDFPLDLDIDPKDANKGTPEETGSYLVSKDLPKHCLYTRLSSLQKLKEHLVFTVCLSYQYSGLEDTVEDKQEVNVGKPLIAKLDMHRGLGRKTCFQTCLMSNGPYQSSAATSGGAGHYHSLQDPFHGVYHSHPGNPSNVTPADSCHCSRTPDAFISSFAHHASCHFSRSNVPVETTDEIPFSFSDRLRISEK
Procedure, shortened: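 Full-length Strep-MALT1(1-824)-His from baculovirus-infected insect cells, 10 nM, preincubated with compound 50 min at RT; 200 μM Ac-LRSR-AMC (KM) in 50 mM Tris pH 7.5, 0.6 M citrate, 1 mM DTT, 1 mM EDTA, 0.05% BSA, 1.5% DMSO. Fluorescence 355/460 nm, 4 h minus time 0; 11-point 1:3 series 30 μM–0.5 nM, IC50 with Hill slope.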

[2] = tested on: secretion of IL6 by OCI-LY3 ABC-DLBCL cells; experiment: Human IL6 Mesoscale assay (OCI-LY3); format: cell-based; conditions: 24 h incubation, IL6 in supernatant
Method: (§1) NFKB signaling regulates the secretion of multiple cytokines, including IL6 and IL10. Secretion of the cytokines IL6 and IL10 by OCI-LY3 ABC-DLBCL cells was measured using a mesoscale assay. Inhibition of NFKB signaling by MALT1 inhibitors results in a decrease of IL6/10 secretion.
(§2) OCI-LY3 cells were propagated in RPMI-1640 (Sigma Aldrich) supplemented with 10% fetal bovine serum (HyClone), 1 mM sodium pyruvate (Invitrogen), 2 mM L-glutamine (Sigma Aldrich) and 1% PenStrep (Sigma Aldrich). Cell passage number should not exceed 30. Cells should be kept between 0.5-2.5 million cells per mL during culturing and cells should be supplemented every 2-3 days with fresh 50 μM beta-mercaptoethanol. No beta-mercaptoethanol was used during the mesoscale assay.
(§3) For the Mesoscale assay, 100,000 OCI-LY3 cells were seeded per well into black-colored 96-well plates with clear bottom (Corning #3904) and test compounds were added in 9 dilution steps (1:2) ranging from 15 μM to 58.6 nM (final DMSO concentration 0.3%). DMSO control wells were used to determine the maximum signal (High Control (HC)). Treatment with the BTK inhibitor RN486 in a dose range from 30 nM to […] (9 dilutions of 1:2) served as a positive control for NFKB pathway inhibition and was used to determine the maximum inhibition (Low Control (LC)). Compounds and cells were incubated for 24 h at 37° C. and 5% CO2 (assay volume is 150 μL). After 24 h of incubation 50 μL of the supernatant was transferred to a MSD plate (V-Plex Proinflammation Panel 1 (human) kit, Mesoscale (MSD)) and incubated for 2 h with vigorous shaking (600 rpm) at room temperature. Following incubation, plates were washed 3× with PBS+0.05% Tween-20 and 25 μL detection antibody solution (IL6 & IL10 antibodies in diluent 3 (MSD)) was added per well followed by 2 h of incubation with vigorous shaking (600 rpm) at room temperature. After 3× washes with PBS+0.05% Tween-20, plates were incubated with 150 μL 2× Read Buffer T and read on SECTOR imager.

[3] = tested on: secretion of IL10 by OCI-LY3 ABC-DLBCL cells; experiment: Human IL10 Mesoscale assay (OCI-LY3); format: cell-based; conditions: 24 h incubation, IL10 in supernatant
Method: as §1, §2, §3

| Compound | IC50 [1] [µM] | IC50 [2] [µM] | IC50 [3] [µM] | IC50 ([2]; Homo sapiens) [µM] | IC50 ([3]; Homo sapiens) [µM] |
| --- | --- | --- | --- | --- | --- |
| CO[C@H](C)c1c(NC(=O)Nc2cnc(-n3nccn3)c(C(F)(F)F)c2)cnc(C)c1Br [Co. 58] | 0.2 | 0.76 | 0.3 |  |  |
| CO[C@@H](C)c1c(NC(=O)Nc2cnc(-n3nccn3)c(Cl)c2)cnc(C)c1C#N [Co. 61] | 0.04 | 0.13 | 0.09 |  |  |
| CO[C@H](C)c1c(NC(=O)Nc2cnc(-n3nccn3)c(Cl)c2)cnc(C)c1C#N [Co. 62] | 0.22 | 0.75 | 0.45 |  |  |
| CO[C@H](C)c1c(NC(=O)Nc2ccnc(C(F)(F)F)c2)cnc(C)c1Cl [Co. 64] | 0.17 | 0.68 | 0.19 |  |  |
| CO[C@H](C)c1c(NC(=O)Nc2cnc(C3CC3)c(C(F)(F)F)c2)cnc(C)c1Cl [Co. 67] | 1.95 | 4.17 | 1.78 |  |  |
| CO[C@@H](C)c1c(NC(=O)Nc2cnc(OC(F)F)c(Cl)c2)cnc(C)c1C#N [Co. 70] | 0.05 | 0.06 | 0.03 |  |  |
| CO[C@@H](C)c1c(NC(=O)Nc2cnc(OC(F)F)c(Cl)c2)cnc(C)c1Cl [Co. 73] | 0.08 | 0.11 | 0.06 |  |  |
| CO[C@H](C)c1c(NC(=O)Nc2cnc(OC(F)F)c(Cl)c2)cnc(C)c1Cl [Co. 74] | 1.35 | 0.93 | 0.65 |  |  |
| COc1ncc(NC(=O)Nc2cnc(C)c(Cl)c2[C@H](C)OC)cc1C#N [Co. 76] | 0.16 | 0.13 | 0.11 |  |  |
| COc1ncc(NC(=O)Nc2cnc(C)c(Cl)c2[C@@H](C)OC)cc1C#N [Co. 77] | 8.32 | 7.59 | 6.03 |  |  |
| COc1nc(-n2nccn2)c(Cl)cc1NC(=O)Nc1cnc(C)c(C#N)c1[C@@H](C)OC [Co. 79] | 0.02 | 0.11 | 0.06 |  |  |
| COc1nc(-n2nccn2)c(Cl)cc1NC(=O)Nc1cnc(C)c(C#N)c1[C@H](C)OC [Co. 80] | 0.05 | 0.15 | 0.09 |  |  |
| COc1nc(-n2nccn2)c(Cl)cc1NC(=O)Nc1cnc(C)c(Cl)c1[C@@H](C)OC [Co. 82] | 0.05 | 0.12 | 0.09 |  |  |
| COc1nc(-n2nccn2)c(Cl)cc1NC(=O)Nc1cnc(C)c(Cl)c1[C@H](C)OC [Co. 83] | 0.35 | 0.5 | 0.18 |  |  |
| COc1nc(-n2nccn2)c(Cl)cc1NC(=O)Nc1cnc(C)c(Br)c1[C@@H](C)OC [Co. 85] | 0.03 | 0.1 | 0.05 |  |  |
| CO[C@H](C)c1c(NC(=O)Nc2cc(Cl)c(-n3nccn3)nc2C)cnc(C)c1C#N [Co. 88] | 0.1 | 0.29 | 0.17 |  |  |
| CO[C@@H](C)c1c(NC(=O)Nc2cc(Cl)c(-n3nccn3)nc2C)cnc(C)c1C#N [Co. 89] | 0.11 | 0.25 | 0.16 |  |  |

| Compound | IC50 [1] [µM] | IC50 [2] [µM] | IC50 [3] [µM] | IC50 ([2]; Homo sapiens) [µM] | IC50 ([3]; Homo sapiens) [µM] |
| --- | --- | --- | --- | --- | --- |
| CO[C@H](C)c1c(NC(=O)Nc2cnc(-n3nccn3)c(C#N)c2)cnc(C)c1Br [Co. 91] | 0.02 | 0.09 | 0.05 |  |  |
| CO[C@@H](C)c1c(NC(=O)Nc2cnc(-n3nccn3)c(C#N)c2)cnc(C)c1Br [Co. 92] | 0.69 | 3.02 | 1.51 |  |  |
| COc1ncc(NC(=O)Nc2cnc(C)c(Br)c2[C@H](C)OC)cc1C#N [Co. 97] | 0.08 | 0.14 | 0.09 |  |  |
| CO[C@H](C)c1c(NC(=O)Nc2cnc(-n3nccn3)c(C(F)(F)F)c2)cnc(C)c1C#N [Co. 100] | 0.03 | 0.09 | 0.06 |  |  |
| CO[C@@H](C)c1c(NC(=O)Nc2cnc(-n3nccn3)c(C(F)(F)F)c2)cnc(C)c1C#N [Co. 101] | 0.21 | 0.24 | 0.15 |  |  |
| CO[C@@H](C)c1c(NC(=O)Nc2cnc(-n3nccn3)c(Cl)c2)cnc(C)c1Cl [Co. 105] | 0.04 | 0.12 | 0.06 |  |  |
| CO[C@@H](C)c1c(NC(=O)Nc2cnc(-n3nccn3)c(C(F)(F)F)c2)cnc(C)c1Cl [Co. 111] | 0.03 | 0.09 | 0.06 |  |  |
| CO[C@H](C)c1c(NC(=O)Nc2cnc(-n3nccn3)c(C(F)(F)F)c2)cnc(C)c1Cl [Co. 112] | 0.68 | 0.87 | 0.48 |  |  |
| CO[C@@H](C)c1c(NC(=O)Nc2cnc(-n3ncc([C@@H](C)O)n3)c(Cl)c2)cnc(C)c1C#N [Co. 115] | 0.06 | 0.23 | 0.1 |  |  |
| CO[C@@H](C)c1c(NC(=O)Nc2cnc(-n3nccn3)c(Cl)c2)cnc(N)c1Br [Co. 118] | 0.48 | 2.75 | 1.51 |  |  |
| CO[C@H](C)c1c(NC(=O)Nc2cnc(-n3nccn3)c(Cl)c2)cnc(N)c1Br [Co. 119] | 0.02 | 0.09 | 0.05 |  |  |
| CO[C@@H](c1c(NC(=O)Nc2cnc(-n3nccn3)c(C(F)(F)F)c2)cnc(C)c1C#N)C1CC1 [Co. 121] | 0.02 | 0.06 | 0.04 |  |  |
| CO[C@H](c1c(NC(=O)Nc2cnc(-n3nccn3)c(C(F)(F)F)c2)cnc(C)c1C#N)C1CC1 [Co. 122] | 0.06 | 0.14 | 0.13 |  |  |
| COc1cncc(NC(=O)Nc2cnc(-n3nccn3)c(C(F)(F)F)c2)c1[C@@H](C)OC [Co. 124] | 0.08 | 0.15 | 0.11 |  |  |
| COc1cncc(NC(=O)Nc2cnc(-n3nccn3)c(C(F)(F)F)c2)c1[C@H](C)OC [Co. 125] | 1.45 | 4.57 | 2.24 |  |  |
| COc1nc(-n2nccn2)c(C(F)(F)F)cc1NC(=O)Nc1cnc(NC(C)(C)C)c(Br)c1C(C)OC (stereo not drawn) [Co. 151] | > 30 |  |  | > 15 | > 15 |
| COc1c(NC(C)(C)C)ncc(NC(=O)Nc2cnc(-n3nccn3)c(C(F)(F)F)c2)c1C(C)OC (stereo not drawn) [Co. 152] | > 30 |  |  | > 15 | > 15 |
